Laboratory results: patent US20260347322A1, “BETA ADRENERGIC AGONIST AND METHODS OF USING THE SAME” (CuraSen Therapeutics, Inc., priority 2019, published 2026)

What was measured:
Type in all cases: cell-based
[1] = molecular target: T1, B2-AR (β2 adrenergic receptor) (Homo sapiens, UniProt P07550); test: cAMP homogeneous time-resolved fluorescence (HTRF) assay, β2
T1 construct: expressed in transfected cells
Experimental: (§1) CAMP homogeneous time-resolved fluorescence (HTRF): experimental methods. Compound efficacy is determined using the CAMP Gs dynamic HTRF assay (Cisbio, catalog #62AM4PEC) largely following the manufacturer's instructions, also detailed below.
(§2) Standard serial dilution curves are 10-point, 5-fold dilutions starting from a highest concentration of 10 μM. […] Assay plates are centrifuged at 500×g for 10 seconds. Compounds and IBMX are prepared at 2× final dose to compensate for addition of cells. […]
(§3) Subsequently, 5 μL Anti-cAMP-Eu Donor, diluted 1:21 in detection and lysis buffer 2, was added to cells. […] Plates are centrifuged again at 500×g for 10 seconds, and HTRF was measured using a Tecan Spark plate reader at 50 flashes per well. […] Potency estimates (EC50 and pEC50) are derived from the four-parameter nonlinear regression of the concentration-effect curve and an estimate of relative efficacy is determined by comparing the magnitude of the test compound HTRF signal window (min-max dose) with the signal window of the full agonist control, isoproterenol.

[2] = molecular target: T2, B1-AR (β1 adrenergic receptor) (Homo sapiens, UniProt P08588); test: cAMP homogeneous time-resolved fluorescence (HTRF) assay, β1
T2 construct: expressed in transfected cells
T2 sequence (P08588 whole entry): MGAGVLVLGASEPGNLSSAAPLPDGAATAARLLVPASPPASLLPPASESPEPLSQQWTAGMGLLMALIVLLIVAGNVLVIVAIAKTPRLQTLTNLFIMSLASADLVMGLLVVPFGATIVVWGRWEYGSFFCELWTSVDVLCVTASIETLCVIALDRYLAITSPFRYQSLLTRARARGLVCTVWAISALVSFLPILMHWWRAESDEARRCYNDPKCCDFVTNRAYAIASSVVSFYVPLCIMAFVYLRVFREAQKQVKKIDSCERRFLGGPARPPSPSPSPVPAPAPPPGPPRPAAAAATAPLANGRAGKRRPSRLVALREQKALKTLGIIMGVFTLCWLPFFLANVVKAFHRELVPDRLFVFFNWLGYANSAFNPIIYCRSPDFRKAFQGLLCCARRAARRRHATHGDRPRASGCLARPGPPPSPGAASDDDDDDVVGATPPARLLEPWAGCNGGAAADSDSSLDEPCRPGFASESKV
Experimental: as §1, §2, §3

[3] = tested on: Endogenous beta-adrenergic receptor, 1321N1 cells; test: cAMP homogeneous time-resolved fluorescence (HTRF) assay, endogenous receptor; conditions: 30 min, 37 °C
Experimental: as §1
Compound Preparation: Candidate beta-adrenergic compounds, dissolved to 10 mM in DMSO, are diluted in 1× stimulation buffer 1 (Cisbio Part #64Sβ1FDD) containing 1 mM 3-Isobutyl-1-methylxanthene (IBMX; Cayman Chemical Company, catalog #13347). Serial dilutions are made in a 96 well V-bottom polypropylene compound microplate (Corning, catalog #3363) in stimulation buffer containing 1 mM IBMX, to 2× of the final desired concentration. Standard serial dilution curves are 10-point, 5-fold dilutions starting from a highest concentration of 10 μM. Controls present on every assay plate are 0.1% DMSO (vehicle control), 1 μM isoproterenol (full beta-adrenergic agonist control) and 15 μM xamoterol (partial beta-adrenergic agonist control). 5 μL from the 2× compound plate is stamped into a white 384 round well small volume HiBase assay plate (Greiner Bio-One; catalog #784075) to provide 4 technical replicates per concentration, per compound. Assay plates are centrifuged at 500×g for 10 seconds. Compounds and IBMX are prepared at 2× final dose to compensate for addition of cells.
Cell Preparation: 1× stimulation buffer, washing PBS (Dulbecco's phosphate-buffered saline, —Mg—Ca; Caisson Labs, catalog #PBL01), assay PBS (Dulbecco's phosphate-buffered saline, +Mg, +Ca; Caisson Labs, catalog #PBL02) and Versene (0.02% EDTA disodium salt solution in PBS without calcium or magnesium; Caisson Labs, catalog #EDL01) are pre-warmed to 37 °C Cells expressing beta-adrenergic receptor were washed in washing PBS to remove growth medium and then released from the surface by incubating with Versene for 5-10 minutes at 37 °C. Cells are harvested using assay PBS, counted manually by hemocytometer or by an automated cell counter, pelleted by centrifugation (200×g, 5 minutes) and resuspended in 37 °C. 1× stimulation buffer to a final density of 1.5×10^6 cells/mL. […]
HTRF Reagent Addition, Reading and Data Analysis: After 30 minutes of cell stimulation with test compound, the assay plates are centrifuged at 500×g for 10 seconds, and incubation was stopped with the addition of 5 μL cAMP-D2 acceptor, diluted 1:21 in detection and lysis buffer 2 (Cisbio 62CL2FDF) was added to all cells. […] Plates are centrifuged again at 500×g for 10 seconds, and HTRF was measured using a Tecan Spark plate reader at 50 flashes per well. HTRF ratios (665 nm/620 nm×10,000) are determined and plotted in GraphPad Prism to generate a concentration-effect curve. […]

T1 sequence (P07550 whole entry): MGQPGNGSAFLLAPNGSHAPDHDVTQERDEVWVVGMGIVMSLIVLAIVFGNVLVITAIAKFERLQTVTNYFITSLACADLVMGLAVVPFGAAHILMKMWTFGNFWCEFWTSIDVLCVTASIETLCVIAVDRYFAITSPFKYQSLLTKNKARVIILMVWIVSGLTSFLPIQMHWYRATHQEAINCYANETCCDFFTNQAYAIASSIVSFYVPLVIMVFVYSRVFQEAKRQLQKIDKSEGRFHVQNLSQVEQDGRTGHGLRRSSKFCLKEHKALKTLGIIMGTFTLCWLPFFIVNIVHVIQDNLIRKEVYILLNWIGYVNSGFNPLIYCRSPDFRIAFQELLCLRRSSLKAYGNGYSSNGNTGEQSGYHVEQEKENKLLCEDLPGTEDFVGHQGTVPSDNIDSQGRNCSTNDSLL

SMILES	EC50 [1]	EC50 [2]	Average pEC50 [Receptor subtype: Endogenous; Cell type: 1321N1] [3]
CC(C)(C)NC[C@H](O)c1cncc2[nH]ncc12 [Compound 04-153]	10 to 100 nM	> 1000 nM	–
CC(C)(C)NC[C@@H](O)c1cccc(O)n1 [Compound 02-8]	–	–	D (D < 6)
CC(C)(C)NC[C@H](O)c1cccc(O)n1 [Compound 02-7]	–	–	D (D < 6)
CC(C)(C)NC[C@H](O)c1cnc(N)c(Cl)c1 [Compound 02-1]	–	–	C (C =< 7-6)
CC(C)(C)NC[C@@H](O)c1cccc(N)n1 [Compound 02-6]	–	–	C (C =< 7-6)
